Data reported in patent publication US20100004316A1, “MULTIFUNCTIONAL CARRIERS FOR THE DELIVERY OF NUCLEIC ACIDS AND METHODS OF USE THEREOF” (UNIVERSITY OF UTAH RESEARCH FOUNDATION, priority 2006, published 2010).

Legend:
[1] = Particle size of MFC/siRNA complexes by dynamic light scattering
Procedure: Particle Size Analysis. Samples were prepared by mixing 5.0 μg of plasmid DNA or siRNA with appropriate amount of materials in dust-free water and analyzed using a Brookhaven Instruments BI-200SM system equipped with a 5 mW helium neon laser with a wavelength output of 633 nm. The effective diameter and population distribution were computed from the diffusion coefficient using functions supplied by the instrument. Measurements were made at 25° C. at an angle of 90° and each sample was analyzed in triplicate.
Formation and size measurement of MFC/siRNA nanoparticles. MFC/siRNA nanoparticulate complexes were prepared and characterized using the techniques described above. The complexation of the polymerizable MFCs with siRNA and formation of nanoparticles of the complexes were investigated by dynamic light scattering. EHCO was first used to study the complexation with siRNA and the impact of N/P ratios on the complexation and formation of nanoparticles. […] The particle size of siRNA complexes with other polymerizable surfactants was measured at the N/P ratios of 8 and 10 based on the observation with EHCO.

U87-Luc cells [2] = assay: Luciferase gene silencing with anti-luciferase siRNA in U87-Luc cells; assay type: cell-based
Procedure: THCO-mediated delivery of siRNA targeting a luciferase reporter gene. U87-Luc cells were seeded 24 hours prior to transfection into a 96-well plate at a density of 5000 cells/well. At the time of siRNA transfection, the medium in each well was replaced with fresh serum-free medium. 20 nM anti-luciferase siRNA or non-specific siRNA was complexed with THCO or Transfast™ or DOTAP and incubated for 30 min before use. The transfection by Transfast or DOTAP was performed according to the manufacture's instruction. Complexes were incubated with the cells for 4 hours at 37° C. The medium was then replaced with 100 μL of fresh complete medium and cells were incubated for additional 44 hours. All the transfection tests were performed in triplicate wells. After the incubation, cells were washed with pre-warmed PBS and treated with 200 μL cell lysis buffer and then subjected to a freezing-thawing cycle. Cellular debris was removed by centrifugation at 14,000 g for 5 minutes. The luciferase activity in cell lysate (20 μL) was measured using a luciferase assay kit (100 μL luciferase assay buffer) on a luminometer for 10 seconds (Lumat 9605, EG&G Wallac). The gene silencing efficiency was normalized against the luciferase expression of untreated cells. The siRNA delivery efficiency was also similarly evaluated in 10% FBS medium.
G. In vitro delivery of nucleic acids by MFCs MFC-mediated in vitro gene silencing with siRNA. U87-luc cells with constitutive expression of firefly luciferase were maintained in minimal essential medium (ATCC) containing 10% FBS, G418 (300 μg/mL), streptomycin (100 μg/mL) and penicillin (100 units/mL). U87-Luc cells were seeded 24 hours prior to transfection into a 96-well plate at a density of 5000 cells/well. At the time of siRNA transfection, the medium in each well was replaced with fresh serum-free medium. Anti-luciferase siRNA was complexed with the MFC, TransFast or DOTAP and incubated for 30 min before use. Complexes were incubated with the cells for 4 hours at 37° C. The medium was then replaced with 100 μL of fresh complete medium and cells were incubated for an additional 44 hours. The cells were then washed with pre-warmed PBS, treated with 200 μL cell lysis buffer and subjected to a freezing-thawing cycle. Cellular debris was removed by centrifugation at 14,000 g for 5 minutes. The luciferase activity in cell lysate (20 μL) was measured using a luciferase assay kit (100 μL luciferase assay buffer) on a luminometer for 10 seconds (Lumat 9605, EG&G Wallac). The gene silencing efficiency was normalized against the luciferase expression of untreated cells.

U87-Luc cells [3] = assay: Cytotoxicity of MFC/siRNA complexes (MTT); assay type: cell-based; conditions: siRNA complexes, 100 nM siRNA
Procedure: Cytotoxicity of MFC/siRNA complexes. U87-luc cells were incubated with MFC/siRNA complexes of different carriers according to the protocol described above. MTT in PBS (5 mg/mL, 25 μL) was added to each well after incubation and cells were incubated for another 2 hours. After cell culture medium was removed, 200 μL DMSO was added to each well and cells were incubated at 37° C. for 5 min. The optical absorption was measured at 570 nm using a micro-plate reader (Model 550, Bio-Rad Lab. Hercules, Calif.). The relative cell viability was calculated with the equation ([Abs]sample-[Abs]blank)/([Abs]control-[Abs]blank)×100%.

U87-luc xenograft = assay: In vivo luciferase knockdown with anti-luc siRNA complexes, bioluminescence imaging; set-up: species or system mice; conditions: 50 μg anti-luciferase siRNA i.p.
Procedure: Animal tumor model. U87 cells with stably expression of luciferase were collected and resuspended with medium/matrigel mixture (v/v=l/l). 100 μL of cell suspension containing 2 million cells were injected subcutaneously in the right flanks of the mice.
Carriers. EHCO was selected for the study. DOTAP is a commercial available transfection agent that has been used to deliver siRNA in vivo and was used as a control carrier. siRNAs. Anti-Luciferase siRNA was used to knockdown luciferase expression in mice so as to noninvasively detect gene silencing efficiency by bioluminescence imaging. […] The sequence of antisense is 5′-[…]dTdT-3′ and that of sense is 3′-dTd[…]-5′. siRNA targeting HIF was provided Huntsman Cancer Institute, University of Utah. The sequence of antisense is 5′-[…]dTdT-3′ and that of sense is 3′-dTdT […]-5′.
Administration of Anti-Luc siRNA complexes and Luciferase mouse imaging. Bioluminescence imaging of mice were taken one day before the administration of the anti-luciferase complexes. […] Images were quantified using LivingImage software (Xenogen). […] The luminescence signal intensity on the day before the mice received the anti-luc complexes were set as 100% and the subsequent luciferase expression level in mice after siRNA treatments were normalized to the percentage relative to those at day 0.

rat red blood cells = assay: Hemolysis assay at different pHs; assay type: cell-based; conditions: for hemolytic activity: 8.3 μM; for hemolysis: pH 7.4, 6.5 and 5.4 (all cases)
Procedure: Hemolysis assay. THCO (16.7 μM), DOTAP (16.7 μM) and Triton X-100 (1%, w/v) were dissolved in phosphate buffered saline (PBS) at a starting pH of 7.4, 6.5, or 5.4 as stock solutions. A rat was sacrificed and blood was obtained by cardiac puncture. Erythrocytes (RBC) were isolated by centrifugation at 1500 g for 10 min at 4° C. The cell pellet was resuspended into a 2% (w/v) RBC solution with prechilled PBS and then seeded (100 μL) into a 96-well plate. 100 μL of testing samples were added to RBC solutions and the plate was incubated for 1 h at 37° C. The absorbance of the supernatant from each sample was measured at 550 nm using a micro-plate reader.
Hemolysis assay. The assays were performed using the techniques described above. The pH sensitive amphiphilic cell membrane disruption of the MFCs was evaluated by hemolysis assay with rat red blood cells at different pHs. […] Generally, all MFCs had lower hemolytic activity at pH 7.4 than at pH 6.5 and 5.4.

U87 cells = assay: MTT cytotoxicity assay in U87 cells; assay type: cell-based; conditions: concentration of 250 μg/mL, 24 h
Procedure: In another study, U87 cells were seeded in a 96-well plate 24 h before the assay at a density of 10,000 cells/well. The cells were incubated with 200 μL of medium containing THCO at different concentrations and incubate for 24 h. Then 25 μL MTT solution in PBS was added and cells were incubated for another 2 hours. After removing media, 200 μL of DMSO was added to the wells and cells were incubated at 37° C. for 5 min. The optical densities were measured at 570 nm using a micro-plate reader (Model 550, Bio-Rad Lab. Hercules, Calif.). The relative cell viability was calculated as described above. […] The viability of U87 cells incubated with THCO was 79±8% at a concentration of 250 μg/mL as determined the MTT assay, slightly higher than that of DOTAP (72±4%) (FIG. 8).

Compound	particle size of siRNA complexes (diameter) ([1]; N/P ratio of 0.5, incubated 30 minutes)	particle size of siRNA complexes ([1]; N/P ratio of 4)	particle size of siRNA complexes ([1]; N/P ratio of 6)	particle size of siRNA complexes (diameter) ([1]; N/P ratio of 8, dust free water)	particle size of siRNA complexes ([1]; N/P ratio of 10) [nm]	luciferase silencing (transfection) efficiency (U87-Luc cells [2]; 20 nM siRNA, MFCs at N/P ratio of 10, FIG. 21b) [%]	knockdown of luciferase expression (U87-Luc cells [2]; 100 nM siRNA, MFCs at N/P ratio of 10, FIG. 21a) [%]	cell viability (U87-Luc cells [3]) [%]	reduction of luciferase expression in the tumor (U87-luc xenograft; after two treatments)	hemolytic activity (rat red blood cells; pH 6.5, PBS)	hemolytic activity (rat red blood cells; pH 7.4, PBS)	gene silencing efficiency (U87-Luc cells [2]; 20 nM siRNA, serum free medium, THCO N/P=8, FIG. 12) [%]	gene silencing efficiency (U87-Luc cells [2]; 20 nM siRNA, serum-free medium, THCO at N/P ratios from 4 to 16) [%]	effect on luciferase expression in the tumor (U87-luc xenograft; two treatments)	viability of U87 cells (U87 cells) [%]	hemolysis (rat red blood cells)
CCCCCCCCC=CCCCCCCCC(=O)NC(CS)C(=O)NC(Cc1cnc[nH]1)C(=O)NCCNC(=O)CCN(CCN)CCC(=O)NCCNC(=O)C(Cc1cnc[nH]1)NC(=O)C(CS)NC(=O)CCCCCCCC=CCCCCCCCC (centres unmarked) [EHCO, (1-aminoethyl)imino-bis[N-(oleicyl-cysteinyl-histinyl-1-aminoethyl)propion-amide]]	approximately 200 nm	about 3 μm	approximately 240 nm	approximately 200 nm	~151	74.5±1.0	88.4±3.1	86.7±8.3	more than 50%	negligible hemolysis	negligible hemolysis					
N-(2,3-dioleoyloxy-1-propyl)trimethylammonium methyl sulfate [DOTAP, reference compound]												47.1±3.8	47	did not have significant effect after the second treatment	72±4	Little hemolysis
Triton X-100 [reference compound]																complete hemolysis
